Measured values reported in patent US20250361274A1, “PEPTIDE AND PEPTIDE-CONTAINING AGENT” (PEPTIDREAM INC., priority 2022, published 2025).
Entries after “also recorded” stand apart in the source; their conditions may differ. Numbered stars: 1 amine (or outer) side, 2 acyl side, 3 side chain; on linkers, the order of the positions; unused ones are H or OH. Bridge positions count the residues as written; N and C are the ends. Square brackets hold non-standard residues; d marks the D form. Peptide text beside a SMILES is read from it. ξ: configuration not given here. X2 = O=C(C[C@@H](Cc1ccc(-c2ccccc2)cc1)C(=O)[*:2])[C@@H]1CCCN1[*:1]; Phe(4-COOH) = N[C@@H](Cc1ccc(C(=O)O)cc1)C(=O)O; Bip = N[C@@H](Cc1ccc(-c2ccccc2)cc1)C(=O)O; Nle(6-COOH) = N[C@@H](CCCCC(=O)O)C(=O)O; X1 = N=C(CN)NCCC[C@H](N[*:1])C(=O)[*:2]; Ala(4-THP) = N[C@@H](CC1CCOCC1)C(=O)O; ξE = NC(CCC(=O)O)C(=O)O; βAla = NCCC(=O)O

Legend:
BMP7 = target: T1, BMP7 (Homo sapiens, UniProt P18075); test: BMP7 signal transduction inhibitory activity: SMAD1 phosphorylation by BMP7 stimulus, A549 cells; type: cell-based
T1 sequence (P18075 293-431): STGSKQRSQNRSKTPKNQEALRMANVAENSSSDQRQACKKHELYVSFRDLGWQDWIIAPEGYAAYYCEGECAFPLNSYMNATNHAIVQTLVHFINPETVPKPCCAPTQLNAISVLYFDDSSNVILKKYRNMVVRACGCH
Method in brief: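 Inhibition was measured as loss of BMP7-induced SMAD1 phosphorylation, using 10 nM BMP7 on A549 cells. Most peptides were given as three-concentration sets, such as 1/10/100, 10/100/1,000, 100/300/1,000 or 10/30/90 nM. Others were given as eight 1/3-ratio dilutions from 100 or 1,000 nM, alongside Noggin as control.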

BMP5 = target: T2, BMP5 (Homo sapiens, UniProt P22003); test: BMP family signal transduction inhibition (SMAD1 phosphorylation), BMP5 stimulus; type: cell-based
T2 sequence (P22003 317-454): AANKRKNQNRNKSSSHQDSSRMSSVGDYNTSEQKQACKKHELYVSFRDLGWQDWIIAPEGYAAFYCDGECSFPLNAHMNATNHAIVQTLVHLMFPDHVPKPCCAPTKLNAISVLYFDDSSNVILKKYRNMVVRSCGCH
Excerpt: In the present Example, BMP4 signal transduction inhibition peptide No. 177, peptide No. 29986 (SEQ ID NO: 277 (Example 8)), and peptide SEQ ID NO: 417 (Example 6) synthesized in Example 2, Example 8, and Example 6 were verified in the same manner as in Example 13 in order to confirm presence or absence of signal transduction inhibitory activities obtained by BMPs 2, 5, 6, 9, 12, and 14 belonging to the respective BMP families.
Regarding the concentrations of the respective BMPs in the evaluation, 0.3 nM of BMP2, 2 nM of BMP5, 3 nM of BMP6, 10 nM of BMP9 and BMP12, and 0.6 nM of BMP14 were added, followed by application of stimulus.
Regarding No. 177, the concentrations of the peptides were as follows. Specifically, eight concentrations of the peptides were used at a common ratio of 1/3 starting from 10 nM (BMP2), starting from 200 nM (BMP5), starting from 100 nM (BMP6), starting from 1,000 nM (BMP9 and BMP12), and starting from 60 nM (BMP14). The evaluation was performed in the same manner as in Example 11 except for the above points. Note that recombinant Human Noggin Protein (R&D) as a positive control was used at the same concentration as the peptide.
Regarding the peptide SEQ ID NO: 277 (Example 8), the concentrations of the peptides were as follows. […]

SMILES: CC(C)[C@@H]1NC(=O)[C@H](CCCNC(=N)N)NC(=O)[C@H](CCCCC(=O)O)NC(=O)CSC[C@@H](C(=O)NCCC(=O)NC(CCC(=O)O)C(=O)O)NC(=O)[C@H](CO)NC(=O)[C@H](Cc2ccc(C(=O)O)cc2)NC(=O)[C@H](Cc2ccc(C(=O)O)cc2)NC(=O)[C@H](Cc2ccc(O)cc2)NC(=O)[C@H](Cc2ccc(-c3ccccc3)cc2)CC(=O)[C@@H]2CCCN2C(=O)[C@H](Cc2ccc(O)cc2)NC(=O)[C@@H]2CCCN2C(=O)[C@H](Cc2ccc(-c3ccccc3)cc2)NC(=O)[C@H](CCCNC(=N)CN)NC(=O)[C@H](CC(=O)O)NC(=O)[C@H](CC2CCOCC2)NC(=O)[C@H](Cc2ccc(C(=O)O)cc2)NC1=O (some centres unmarked) [SEQ ID No. 177] ({CH2CO}-[Nle(6-COOH)]RV[Phe(4-COOH)][Ala(4-THP)]D[X1][Bip]PY[X2]Y[Phe(4-COOH)][Phe(4-COOH)]SC[βAla][ξE]-OH; thioether N-16)
- BMP7 inhibitory activity (in words) (BMP7): same level of the BMP7 inhibitory activity as Noggin; also recorded: signal transduction inhibitory activities of BMP4 and BMP7
- BMP5 signal transduction inhibitory activity (in words) (BMP5): signal transduction inhibitory activities of BMP2, BMP5, and BMP6
